Each structure is given as a SMILES string. Inconclusive results are not listed. The source made the active and inactive calls. No rule for the calls is given here; tested in MIN6 cells. Some results are limits rather than exact numbers.

A short description of assay [1]: GFP-wavelength compound autofluorescence in cells – imaging, high-content imaging, artefact control, dose response (AID 2124).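 As to cell count: cells exposed to compound for 48 hours before fixing.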 The following applies: cells, GFP-channel autofluorescence, high-content imaging; cell count; at 10 µM.
Assay [2] deals with cells, GFP-channel autofluorescence, high-content imaging. Described as above.

Turning to `N#C/C(=C\c1ccc(N2CCCCC2)o1)C(N)=O`, the cell count in assay [1] was determined as 3260 cells. In addition, in assay [2], the EC50 is 12.2 µM (inactive).
On the same counts, the results for `COc1cc(OC)c(-c2c3cc(O)c(=O)cc-3oc3cc(O)c(O)cc23)cc1OC` are 3000 cells and 13.5 µM (inactive).
In turn, `COc1ccc2c(n1)Sc1nc3ccccc3nc1N2` displayed a cell count in assay [1] of 3030 cells. The EC50 in assay [2] was 6.69 µM.
The corresponding values for `CCN1CC=C2C(C#N)=C(N)C(C#N)(C#N)C(CCc3ccccc3)C2C1` (stereo unspecified) are 3160 cells and 9.3 µM.
The corresponding values for `CC1=C/C(=C\C=C(C#N)C#N)N(C)c2ccccc21` are 3120 cells and 3.23 µM.
On the same counts, the results for `CCN(CC)c1ccc2cc(-c3nc(-c4ccc(OC)cc4)cs3)c(=O)oc2c1` are 2750 cells and > 16 µM (inactive).
Take `Cc1cc2nc3c(=O)n(C4CCCCC4)c(=O)[nH]c3nc2cc1N`: the cell count in assay [1] was 3150 cells. The EC50 in assay [2] is 11.8 µM (inactive).
With `O=c1oc2c3c4c(cc2c(C(F)(F)F)c1CCN1CCOCC1)CCCN4CCC3`, in assay [1], the cell count stood at 3400 cells. In addition, the EC50 in assay [2] was 8.25 µM.
Consider `CCCN1C(=O)S/C(=C\c2ccc(N3CCOCC3)o2)C1=O`, for which, in assay [1], the cell count came out at 194 cells. In addition, the EC50 in assay [2] was > 16 µM (inactive).
The corresponding values for `CN1CC=C2C(C#N)=C(N)C(C#N)(C#N)C(c3cccc(Cl)c3Cl)C2C1` (stereo unspecified) are 3010 cells and 11.9 µM (inactive).
In turn, `CCOC(=O)N1CCN(/C=C(\C#N)c2nc3ccccc3s2)CC1` came in with a cell count in assay [1] of 2980 cells. In addition, the EC50 in assay [2] is 11.7 µM (inactive).
On the same counts, the results for `CCCNc1c(F)c(F)c2c(C)c3ccccc3nc2c1F` are 3140 cells and 10.9 µM (inactive).
On the same counts, the results for `O=c1c(Cl)c2oc3ccccc3nc-2c2ccccc12` are 2670 cells and 6.42 µM.
The corresponding values for `CNC(=O)c1c(NC(=O)c2ccc(S(=O)(=O)N3CCCc4ccccc43)cc2)sc2c1CCN(C)C2` are 3190 cells and 8.08 µM.
`O=C(OCCN1C(=O)c2cccc3c(N4CCOCC4)ccc(c23)C1=O)c1ccc(Cl)cc1Cl` had a cell count in assay [1] of 1690 cells. In addition, in assay [2], the EC50 was 6.84 µM.
On the same counts, the results for `O=C1c2cccc3c(N4CCCCC4)ccc(c23)C(=O)N1c1ccccc1O` are 3140 cells and 15.3 µM (inactive).
Regarding `Cc1cccc(N=Cc2[nH]c3ccc(Br)c(Cl)c3c2O)c1`, in assay [1], the cell count turned out to be 3340 cells. Further, the EC50 in assay [2] was > 16 µM (inactive).
With `Oc1ccc(/C=N/Nc2ccnc3cc(Cl)ccc23)c(O)c1`, the cell count in assay [1] stood at 1690 cells. Moreover, the EC50 in assay [2] was 10.3 µM (inactive).
In assay [1], `COc1ccc2c(C)cc(SCC(=O)N(C)C3CCS(=O)(=O)C3)nc2c1` (stereo unspecified) came in with a cell count of 3270 cells. Also, in assay [2], the EC50 was 9.63 µM.
The corresponding values for `COc1cc2c(cc1OC)C1=CC(=O)C(=O)N1C(C)(C)C2` are 2990 cells and 5.78 µM.
In assay [1], `CN1CC=C2C(C#N)=C(N)C(C#N)(C#N)C(c3ccncc3)C2C1` (stereo unspecified) showed a cell count of 2850 cells. In addition, the EC50 in assay [2] was 14.8 µM (inactive).
On the same counts, the results for `O=C1S/C(=C\c2ccc(N3CCOCC3)o2)C(=O)N1c1ccccc1` are 1060 cells and > 16 µM (inactive).
In assay [1], `Cn1cc(/C=C2\SC(=S)N(NC(=O)c3ccccc3Cl)C2=O)c2ccccc21` returned a cell count of 3740 cells. In assay [2], the EC50 was 13.9 µM (inactive).
On the same counts, the results for `Cc1ccnc(N/C=C(\C#N)c2nc(-c3cccc(Br)c3)cs2)c1` are 2880 cells and 8.87 µM.
The molecule `CN1CC=C2C(C#N)=C(N)C(C#N)(C#N)[C@H](c3cccc(Cl)c3)C2C1` (stereo partly specified) yielded a cell count in assay [1] of 2960 cells. Besides, in assay [2], the EC50 was 9.06 µM.
The corresponding values for `O=[N+]([O-])c1ccc(N2N=C(c3ccco3)CC2c2ccccc2)cc1` (stereo unspecified) are 2840 cells and 6.38 µM.
On the same counts, the results for `CCN(CC)c1ccc(/C=C(/C#N)C(=O)NC(C)C)o1` are 3080 cells and 14.2 µM (inactive).
In assay [1], `CCN(CC)c1ccc(/C=C/C(=O)c2ccc(Br)cc2)cc1` yielded a cell count of 2880 cells. For the same molecule, the EC50 in assay [2] was 3.67 µM.
In assay [1], `CC(=O)Nc1cccc(C(=O)/C=C/c2ccc(N(C)C)cc2)c1` came in with a cell count of 2940 cells. Besides, the EC50 in assay [2] is 12 µM (inactive).
The corresponding values for `CC(=O)c1cc(NC(=O)c2ccc(Cl)cc2)c(=O)oc1/C=C/N(C)C` are 2840 cells and 9.14 µM.
On the same counts, the results for `CC(C)N1CC=C2C(C#N)=C(N)C(C#N)(C#N)[C@H](c3ccoc3)[C@H]2C1` are 2840 cells and 6.74 µM.
On the same counts, the results for `Nc1c(C(=O)Nc2nc3ccccc3s2)sc2nc(-c3cccs3)ccc12` are 217 cells and 8.63 µM.
Take `O=C1c2cccc3c(O)ccc(c23)C(=O)N1Cc1ccccc1`: in assay [1], the cell count is 2660 cells. Further, the EC50 in assay [2] was > 16 µM (inactive).

The values are drawn from PubChem BioAssay AID2124 (Sanford-Burnham Center for Chemical Genomics, 2009).
